This is an account of results in US20230065495A1, “MULTIPARTITE AND CIRCULARLY PERMUTED BETA-BARREL POLYPEPTIDES AND METHODS FOR THEIR USE” (University of Washington, priority 2020, published 2023).

B1: MBP-tagged split mFAP fragment m38 (β-strands 3-8 of mFAP2a) (designed binder, not shown: large carriers)
chain: YTMDIVAQGTISDGRPIVGYGKATVKTPDTLDIDITYPSLGNIKAQGQITMDSPTQFKWDATTKGENDFHGRLTGTLQRQE
B2: MBP-tagged split mFAP fragment m13 (β-strands 1-3 of mFAP2a) (designed binder, not shown: large carriers)
chain: SRAAQLLPGTWQATFTNEDGQTSQGQWHFQPRSPYTMDIVAQGTIS
modifications: also: MBP-tagged (side and linker not given here)
B4: MBP-tagged split mFAP fragment m12 (β-strands 1-2 of mFAP2a) (designed binder, not shown: large carriers)
chain: SRAAQLLPGTWQATFTNEDGQTSQGQWHFQPRSP
modifications: also: MBP-tagged (side and linker not given here)
B5: MBP-tagged split mFAP fragment m58 (β-strands 5-8 of mFAP2a) (designed binder, not shown: large carriers)
chain: DTLDIDITYPSLGNIKAQGQITMDSPTQFKWDATTKGENDFHGRLTGTLQRQE
modifications: also: MBP-tagged (side and linker not given here)
B7: MBP-tagged split mFAP fragment m48 (β-strands 4-8 of mFAP2a) (designed binder, not shown: large carriers)
chain: DGRPIVGYGKATVKTPDTLDIDITYPSLGNIKAQGQITMDSPTQFKWDATTKGENDFHGRLTGTLQRQE
B10: MBP-tagged split mFAP fragment m14 (β-strands 1-4 of mFAP2a) (designed binder, not shown: large carriers)
chain: SRAAQLLPGTWQATFTNEDGQTSQGQWHFQPRSPYTMDIVAQGTISDGRPIVGYGKATVKTP

For data set [1] the following is noted: cited from earlier work; for Extinction Coefficient / Reported Quantum Yield / λabs, peak absorbance wavelength / λem, peak emission wavelength / λex, peak excitation wavelength: previously reported value.
Data set [2] deals with B4. The experiment in a line: β-barrel self-complementation assay, equimolar MBP-tagged fragments in excess DFHBI-1T; reference is m1 with m28. How it is done: (§1) To measure fluorescence intensities in complementation assays (FIG. 1b), fluorescence was measured on a Synergy Neo2 hybrid multi-mode reader (BioTek) in flat bottom, black polystyrene, non-binding surface 96-well half-area microplates (Corning 3686). Each split mFAP fragment covalently fused to maltose binding protein (MBP) was purified by large-scale protein purification in high salt Tev cleavage buffer⁹. In technical triplicate, 12.0 μL of each MBP-tagged split mFAP fragment was mixed to an equimolar concentration supplemented with 1.00 μL of 1.25 mM DFHBI-1T (Lucerna) at 25.0 μL final volumes per well. Fluorescence endpoints were measured using excitation wavelength λₑₓ=478 nm and emission wavelength λₑₘ=520 nm. In technical triplicate, background fluorescence endpoints of wells with identical chromophore concentrations lacking protein (substituted for equivalent volumes of high salt Tev cleavage buffer) were measured, and the mean fluorescence endpoints were subtracted from the mean fluorescence endpoints of samples containing protein (FIG. 1b).

For data set [3], the target named is B4. The experiment in a line: β-barrel self-complementation assay, equimolar MBP-tagged fragments in excess DFHBI-1T. How it is done: as §1
Data set [4] deals with B4. Nature of the data set: fluorescence complementation titration: MBP-tagged m38 titrated into fixed MBP-tagged m12 in 25.0 µM DFHBI-1T; signal did not plateau, Kd is at least the highest titrant concentration. The procedure:
(§2) Split mFAP fragment affinities (FIG. 1d,e,f,g) were estimated by preparing MBP-tagged split mFAP fragments by large-scale protein purification in high salt Tev cleavage buffer⁹, with 25.0 μM DFHBI-1T final concentration at 28.0 μL final volumes per well in flat bottom, black polystyrene, non-binding surface 96-well half-area microplates (Corning 3686). 3.00 μL of either 132 μM m12, 122 μM m14, 101 μM m16, or 84.9 μM m17 in high salt Tev cleavage buffer was mixed with 3.00 μL of 150 μM DFHBI-1T in high salt Tev cleavage buffer. For each split mFAP fragment, 12.0 μL of the complementary split mFAP fragment in high salt Tev cleavage buffer (the titrant) was mixed in from eleven serial dilutions (\sqrt{10} dilution factor) starting from 422 μM m38, 33.0 μM m58, 348 μM m78, or 531 μM m8 stock solutions, respectively, including a twelfth condition without titrant. Fluorescence endpoints were measured on a Synergy Neo2 hybrid multi-mode reader (BioTek) using excitation wavelength λₑₓ=468 nm and emission wavelength λₑₘ=530 nm. For each titration, the fluorescence intensity of the condition without titrant was subtracted from the fluorescence intensities of samples containing titrant, then the background subtracted data was normalized from 0 to 1. […]

The target in data set [5] is B7. The experiment in a line: split mFAP self-complementation, MBP-tagged fragments mixed equimolar with excess DFHBI-1T, fluorescence endpoint (n=3). How it is done: as §1
Data set [6] addresses T1, MBP-tagged split mFAP fragment m17 (β-strands 1-7 of mFAP2a).
T1 chain: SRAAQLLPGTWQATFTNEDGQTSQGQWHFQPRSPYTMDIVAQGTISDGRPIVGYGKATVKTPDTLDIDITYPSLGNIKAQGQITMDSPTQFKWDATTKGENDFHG
The experiment in a line: fluorescence complementation titration: MBP-tagged m8 titrated into fixed MBP-tagged m17 in 25.0 µM DFHBI-1T; signal did not plateau, Kd is at least the highest titrant concentration. The procedure:
as §2

For data set [7], the target named is B1. Nature of the data set: split mFAP self-complementation, MBP-tagged fragments mixed equimolar with excess DFHBI-1T, fluorescence endpoint (n=3). How it is done:
as §1

Data set [8] deals with B10. Nature of the data set: fluorescence complementation titration: MBP-tagged m58 titrated into fixed MBP-tagged m14 in 25.0 µM DFHBI-1T; signal did not plateau, Kd is at least the highest titrant concentration. How it is done:
as §2

In data set [9] the target is T2, MBP-tagged split mFAP fragment m15 (β-strands 1-5 of mFAP2a).
T2 chain: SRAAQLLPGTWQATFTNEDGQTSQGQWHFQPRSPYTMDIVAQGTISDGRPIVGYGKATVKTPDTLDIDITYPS
The experiment in a line: β-barrel self-complementation assay (fluorescence of DFHBI-1T). How it is done:
as §1

For data set [10], the target named is B2. Described as above. The procedure:
as §1

The target in data set [11] is T3, MBP-tagged split mFAP fragment m16 (β-strands 1-6 of mFAP2a).
T3 chain: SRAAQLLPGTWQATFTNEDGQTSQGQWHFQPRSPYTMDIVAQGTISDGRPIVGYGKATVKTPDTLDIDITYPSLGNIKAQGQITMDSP
The experiment in a line: fluorescence complementation titration: MBP-tagged m78 titrated into fixed MBP-tagged m16 in 25.0 µM DFHBI-1T; signal did not plateau, Kd is at least the highest titrant concentration. How it is done: as §2

Data set [12] is described as follows: cpmFAP fluorescence intensity assay. The settings on record: equimolar concentration, excess DFHBI-1T. Format: biochemical. The procedure:
To measure the fluorescence intensities of cpmFAPs (FIG. 4b,d), fluorescence endpoints were measured on a Synergy Neo2™ hybrid multi-mode reader (BioTek) in flat bottom, black polystyrene, non-binding surface 96-well microplates (Corning 3650) or half-area microplates (Corning 3686). […]

In data set [13] the target is B5. Nature of the data set: split mFAP self-complementation, MBP-tagged fragments mixed equimolar with excess DFHBI-1T, fluorescence endpoint (n=3). How it is done: as §1

Several values for one entry are separate records, joined by “and”; a condition that tells them apart may be missing. Equal entries are not always repeated. Marks after values point to notes of the source that are not given here. Ends that are not written are not given here.

As for `Cc1cc2cc3cc(C)c(N)cc3nc2cc1N.Cl` [Acridine Yellow G], the “quantum yield value of reference dye” value in data set [1] (in methanol) is reported as 0.57.
As to `CC1=NC(=Cc2cc(F)c(O)c(F)c2)C(=O)N1C` [DFHBI, 3,5-difluoro-4-hydroxybenzylidene imidazolinone], the “Absolute Quantum Yield” value in data set [1] (marked previously reported value) is 0.001^#. Moreover, in data set [1], the “Extinction Coefficient” value is 30,100^¶ M^−1, cm^−1 and 31,935^# M^−1, cm^−1; the “Reported Quantum Yield” value is given as 0.0007^¶; the “λabs, peak absorbance wavelength” value is on record as 418^¶ nm; the “λem, peak emission wavelength” value was 489^¶ nm. The “λex, peak excitation wavelength” value in data set [1] is listed as 423^¶ nm.
With `CC1=N/C(=C\c2cc(F)c(O)c(F)c2)C(=O)N1CC(F)(F)F` [DFHBI-1T, (Z)-4-(3,5-difluoro-4-hydroxybenzylidene)-2-methyl-1-(2,2,2-trifluoroethyl)-1H-imidazol-5(4H)-one], in [1], the “Extinction Coefficient” value was 35,400^¶ M^−1, cm^−1; the “Reported Quantum Yield” value is listed as 0.00098^¶; the “λabs, peak absorbance wavelength” value was 422^¶ nm; the “λem, peak emission wavelength” value is on record as 495^¶ nm. In [1], the “λex, peak excitation wavelength” value is reported as 426^¶ nm.
B1: in [2], the “background-subtracted mean fluorescence intensity relative to the m1 and m28 combination (fold)” value was 184 fold. Besides, the “mean fluorescence intensity over mean background fluorescence intensity (fold)” value in data set [3] came out at 7.34 fold. Also, in data set [4], the Kd was no less than 281 µM.
Take B2: the binding result in data set [5] is “binds”.

B3: MBP-tagged split mFAP fragment m8 (β-strand 8 of mFAP2a) (designed binder, not shown: large carriers)
chain: RLTGTLQRQE
modifications: also: MBP tag fused, side and linker not given here
B3: the Kd in data set [6] is no less than 354 µM.
For the molecule B4, in data set [7], the binding result is “binds”.
For the molecule B5, in data set [8], the Kd is no less than 22 µM.

B6: MBP-tagged split mFAP fragment m68 (β-strands 6-8 of mFAP2a) (designed binder, not shown: large carriers)
chain: LGNIKAQGQITMDSPTQFKWDATTKGENDFHGRLTGTLQRQE
modifications: also: MBP tag fused, side and linker not given here
Regarding B6, the binding result in data set [9] was “binds”.
For the molecule B7, in data set [10], the binding result was “binds”.

B8: MBP-tagged split mFAP fragment m78 (β-strands 7-8 of mFAP2a) (designed binder, not shown: large carriers)
chain: TQFKWDATTKGENDFHGRLTGTLQRQE
modifications: also: MBP tag fused, side and linker not given here
On to B8, for which the Kd in data set [11] is no less than 232 µM.

B9: cp35-34_mFAP2a_12: circularly permuted mFAP, SEQ ID NO: 341; brightest cpmFAP tested (protein)
chain: QEMDIVAQGTISDGRPIVGYGKATVKTPDTLDIDITYPSLGNIKAQGQITMDSPTQFKWDATTKGENDFHGRLTGTLQRTEEAKEATEEARRRGITTQAAQLLPGTWQATFTNEDGQTSQGQWHFQPRDG
With B9, in data set [12], the “fluorescence intensity relative to mFAP2a” value was roughly 93%.
For B10, the binding result in data set [13] is recorded as “binds”.

One may read the Kd as the free concentration of one partner at which half of the binding sites on the other are occupied at equilibrium, for simple one-to-one binding.
